Measured values as given in PubChem BioAssay (NCI).
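The compound was tested at five concentrations on cells cultured in 96-well plates, with a 48-hour exposure period. GI50 is the concentration that inhibits growth by half. TGI: concentration producing complete growth inhibition.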

Experiments:
Assay in all cases: NCI tumour cell line growth inhibition, 48 h
786-0 renal = tested on: 786-0 renal
A498 renal = tested on: A498 renal
A549 NSCLC = tested on: A549 NSCLC
ACHN renal = tested on: ACHN renal
BT-549 breast = tested on: BT-549 breast
CCRF-CEM leukemia = tested on: CCRF-CEM leukemia
DU-145 prostate = tested on: DU-145 prostate
EKVX NSCLC = tested on: EKVX NSCLC
HCC-2998 colon = tested on: HCC-2998 colon
HCT-116 colon = tested on: HCT-116 colon
HCT-15 colon = tested on: HCT-15 colon
HL-60(TB) leukemia = tested on: HL-60(TB) leukemia
HOP-62 NSCLC = tested on: HOP-62 NSCLC
HOP-92 NSCLC = tested on: HOP-92 NSCLC
HS 578T breast = tested on: HS 578T breast
HT29 colon = tested on: HT29 colon
IGROV1 ovarian = tested on: IGROV1 ovarian
KM12 colon = tested on: KM12 colon
LOX IMVI melanoma = tested on: LOX IMVI melanoma
M14 melanoma = tested on: M14 melanoma
MALME-3M melanoma = tested on: MALME-3M melanoma
MCF7 breast = tested on: MCF7 breast
MDA-MB-231 breast = tested on: MDA-MB-231 breast
MDA-MB-435 = tested on: MDA-MB-435
MOLT-4 leukemia = tested on: MOLT-4 leukemia
NCI-H226 lung = tested on: NCI-H226 lung
NCI-H23 lung = tested on: NCI-H23 lung
NCI-H460 lung = tested on: NCI-H460 lung
NCI-H522 lung = tested on: NCI-H522 lung
NCI/ADR-RES ovarian = tested on: NCI/ADR-RES ovarian
OVCAR-3 ovarian = tested on: OVCAR-3 ovarian
OVCAR-4 ovarian = tested on: OVCAR-4 ovarian
OVCAR-5 ovarian = tested on: OVCAR-5 ovarian
OVCAR-8 ovarian = tested on: OVCAR-8 ovarian
PC-3 prostate = tested on: PC-3 prostate
RXF 393 renal = tested on: RXF 393 renal
SF-268 CNS = tested on: SF-268 CNS
SF-295 CNS = tested on: SF-295 CNS
SF-539 CNS = tested on: SF-539 CNS
SK-MEL-2 melanoma = tested on: SK-MEL-2 melanoma
SK-MEL-28 melanoma = tested on: SK-MEL-28 melanoma
SK-MEL-5 melanoma = tested on: SK-MEL-5 melanoma
SK-OV-3 ovarian = tested on: SK-OV-3 ovarian
SN12C renal = tested on: SN12C renal
SNB-19 CNS = tested on: SNB-19 CNS
SNB-75 CNS = tested on: SNB-75 CNS
SR leukemia = tested on: SR leukemia
SW-620 colon = tested on: SW-620 colon
T-47D breast = tested on: T-47D breast
TK-10 renal = tested on: TK-10 renal
U251 CNS = tested on: U251 CNS
UACC-257 melanoma = tested on: UACC-257 melanoma
UACC-62 melanoma = tested on: UACC-62 melanoma
UO-31 renal = tested on: UO-31 renal

`O=C1c2ccccc2C(=O)c2c1ccc(C(Br)Br)c2Cl` was tested, and the GI50 (786-0 renal) was 1.71 µM, the TGI (786-0 renal) was 3.25 µM and the GI50 (A498 renal) was 17 µM. The TGI (A498 renal) was 31.9 µM, the GI50 (A549 NSCLC) was 16.7 µM and the TGI (A549 NSCLC) was 32.3 µM. For the same compound, the GI50 (ACHN renal) was 1.57 µM, the TGI (ACHN renal) was 3.02 µM and the GI50 (BT-549 breast) was 1.79 µM. The TGI (BT-549 breast) was 4.61 µM, the GI50 (CCRF-CEM leukemia) was 2.1 µM and the TGI (CCRF-CEM leukemia) was 8.21 µM. It also gave a GI50 (DU-145 prostate) of 2.07 µM, a TGI (DU-145 prostate) of 4.7 µM and a GI50 (EKVX NSCLC) of 4.42 µM. The TGI (EKVX NSCLC) was 17.8 µM, the GI50 (HCC-2998 colon) was 3.42 µM and the TGI (HCC-2998 colon) was 12.1 µM. It also gave a GI50 (HCT-116 colon) of 1.58 µM, a TGI (HCT-116 colon) of 3.02 µM and a GI50 (HCT-15 colon) of 1.69 µM. It also gave a TGI (HCT-15 colon) of 3.4 µM, a GI50 (HL-60(TB) leukemia) of 3.66 µM and a TGI (HL-60(TB) leukemia) of 11.2 µM. For the same compound, the GI50 (HOP-62 NSCLC) was 2.1 µM, the TGI (HOP-62 NSCLC) was 4.67 µM and the GI50 (HOP-92 NSCLC) was 1.67 µM. For the same compound, the TGI (HOP-92 NSCLC) was 3.35 µM, the GI50 (HS 578T breast) was 2.81 µM and the TGI (HS 578T breast) was 9.11 µM. The GI50 (HT29 colon) was 1.87 µM, the TGI (HT29 colon) was 3.54 µM and the GI50 (IGROV1 ovarian) was 1.7 µM. The TGI (IGROV1 ovarian) was 3.89 µM, the GI50 (KM12 colon) was 2.04 µM and the TGI (KM12 colon) was 5.28 µM. The GI50 (LOX IMVI melanoma) was 1.59 µM, the TGI (LOX IMVI melanoma) was 3.08 µM and the GI50 (M14 melanoma) was 2.67 µM. For the same compound, the TGI (M14 melanoma) was 9.06 µM, the GI50 (MALME-3M melanoma) was 1.69 µM and the TGI (MALME-3M melanoma) was 3.38 µM. It also gave a GI50 (MCF7 breast) of 1.69 µM, a TGI (MCF7 breast) of 3.86 µM and a GI50 (MDA-MB-231 breast) of 1.87 µM. It also gave a TGI (MDA-MB-231 breast) of 3.7 µM, a GI50 (MDA-MB-435) of 3.03 µM and a TGI (MDA-MB-435) of 10.9 µM. It also gave a GI50 (MOLT-4 leukemia) of 2.81 µM, a TGI (MOLT-4 leukemia) of 9.32 µM and a GI50 (NCI-H226 lung) of 4.49 µM. The TGI (NCI-H226 lung) was 24.4 µM, the GI50 (NCI-H23 lung) was 1.91 µM and the TGI (NCI-H23 lung) was 4.92 µM. The GI50 (NCI-H460 lung) was 2.01 µM, the TGI (NCI-H460 lung) was 3.85 µM and the GI50 (NCI-H522 lung) was 1.6 µM. The TGI (NCI-H522 lung) was 3.3 µM, the GI50 (NCI/ADR-RES ovarian) was 3.1 µM and the TGI (NCI/ADR-RES ovarian) was 14.9 µM. It also gave a GI50 (OVCAR-3 ovarian) of 1.66 µM, a TGI (OVCAR-3 ovarian) of 3.12 µM and a GI50 (OVCAR-4 ovarian) of 1.78 µM. For the same compound, the TGI (OVCAR-4 ovarian) was 4.3 µM, the GI50 (OVCAR-5 ovarian) was 11.1 µM and the TGI (OVCAR-5 ovarian) was 23.9 µM. For the same compound, the GI50 (OVCAR-8 ovarian) was 3.16 µM, the TGI (OVCAR-8 ovarian) was 8.87 µM and the GI50 (PC-3 prostate) was 2.38 µM. For the same compound, the TGI (PC-3 prostate) was 6.28 µM, the GI50 (RXF 393 renal) was 2 µM and the TGI (RXF 393 renal) was 4.79 µM. The GI50 (SF-268 CNS) was 1.68 µM, the TGI (SF-268 CNS) was 3.45 µM and the GI50 (SF-295 CNS) was 11.7 µM. The TGI (SF-295 CNS) was 23.9 µM, the GI50 (SF-539 CNS) was 1.99 µM and the TGI (SF-539 CNS) was 4.61 µM. The GI50 (SK-MEL-2 melanoma) was 3.27 µM, the TGI (SK-MEL-2 melanoma) was 12.4 µM and the GI50 (SK-MEL-28 melanoma) was 11.9 µM. For the same compound, the TGI (SK-MEL-28 melanoma) was 24.4 µM, the GI50 (SK-MEL-5 melanoma) was 5.84 µM and the TGI (SK-MEL-5 melanoma) was 18.1 µM. The GI50 (SK-OV-3 ovarian) was 15.1 µM, the TGI (SK-OV-3 ovarian) was 30 µM and the GI50 (SN12C renal) was 1.92 µM. The TGI (SN12C renal) was 3.82 µM, the GI50 (SNB-19 CNS) was 3.55 µM and the TGI (SNB-19 CNS) was 13.5 µM. The GI50 (SNB-75 CNS) was 13.7 µM, the TGI (SNB-75 CNS) was 26.9 µM and the GI50 (SR leukemia) was 1.83 µM. For the same compound, the TGI (SR leukemia) was 4.33 µM, the GI50 (SW-620 colon) was 1.78 µM and the TGI (SW-620 colon) was 3.4 µM. It also gave a GI50 (T-47D breast) of 1.76 µM, a TGI (T-47D breast) of 5.79 µM and a GI50 (TK-10 renal) of 3.91 µM. The TGI (TK-10 renal) was 12.3 µM, the GI50 (U251 CNS) was 1.75 µM and the TGI (U251 CNS) was 3.24 µM. The GI50 (UACC-257 melanoma) was 12.1 µM, the TGI (UACC-257 melanoma) was 24.8 µM and the GI50 (UACC-62 melanoma) was 4.56 µM. For the same compound, the TGI (UACC-62 melanoma) was 16.6 µM, the GI50 (UO-31 renal) was 1.73 µM and the TGI (UO-31 renal) was 3.78 µM.
